In patent US8546086B2, “Use of neuregulin-β as an indicator and/or target” (Mind-NRG SA, priority 2000, dated 2013):

Columns and labels:
Format in all cases: cell-based, rat
Neuregulin-β = experiment: 2-D-PAGE / MALDI-TOF-MS / ESI-MS of glutamate-induced changes in hippocampal proteins; conditions: for Quantity of Neu-β (32 kDa spot) in 2-D-PAGE: FIG. 4: B=glutamate, C=glutamate+MK-801 (10 μM MK-801)
Text: (§1) Hippocampal cells were stimulated with stimulation buffer (in mM): NaCl (125), KCL (5), CaCl2 (2-6), MgCl2 (0.8) glucose (5-10), HEPES (20), L-glutamate (0.01-0.1), glycine (0.01), bicucullin (0.01), pH 7.2; (A=control, B=glutamate, C=glutamate+MK-801; MK-801 is a specific glutamate receptor antagonist). In this connection, the measured or control quantity indicative of performance was a fluorescence signal measured using Fura-2, which signal is proportional to the calcium concentration (all the substances can be found in chemical catalogues supplied by Torris or Sigma).
Furthermore, proteins which change under the chosen experimental conditions, or otherwise behave in a conspicuous manner, are characterized and identified using the techniques of proteome research, namely by means of two-dimensional gel electrophoresis, MALDI-TOF-MS and ESI-MS.
Neuregulin-β was identified by means of two-dimensional PAGE using isoelectric focusing and employing immobilized, nonlinear pH gradients of from 3 to 10 and linear gradients of from 4 to 7 as the first dimension and SDS-PAGE (12% acrylamide) as the second dimension.
The protein was excised from the gels, subjected to a trypsin cleavage within the gel and subsequently [lacuna] mass-spectroscopically by means of MALDI-TOF mass fingerprint and ESI peptide sequencing (Corthals et al., Identification of Proteins by Mass-Spectrometry, in: Proteome Research, Two-Dimensional Gel-Electrophoresis and Identification Methods, Thierry Rabilloud, Ed., Springer, Berlin (2000), 197-232).
The identity of the protein was confirmed by analyzing selected peptides by means of MS/MS analysis using ion traps, electrospray, mass spectroscopy of the peptide mixture, which was not fractionated and which had previously been analyzed by MALDI-TOF. The MS/MS analysis of m/z 798.4 was sufficient in order, inter alia, to identify the 88-94 peptide of neuregulin-β. The MS/MS analysis of m/z=842.7 confirmed the sequence of the peptide around position 81-87. […]

hippocampal cells [1] = experiment: Neurotransmitter (GABA) release in perfusate by fluorescence HPLC; conditions: hippocampal neurons, 100 μm glutamate for 30 seconds, +22° C.; control 87 pMol
Procedure: (§2) Suitable cell culture systems, in the case of neuregulin-β hippocampal primary cultures obtained from prenatal or neonatal rats (described in, for example, “Rat hippocampal neurons in low-density culture”, K. Goslin, H. Asmussen, G. Banker; in “Culturing Nerve Cells, 2nd edition 1998, pp. 339 ff; K. Goslin and G. Banker, eds. MIT Press, Cambridge, Mass., USA), are cultured on the above-described slides, introduced into the flow cell and initially characterized microscopically (morphological micrographs, etc. in the phase contrast microscope). […]
(§3) Almost in parallel to this, the perfusate is subjected to a synchronized fractionation and analysis; in the case of hippocampal neurons, of neurotransmitters, by means of HPLC using fluorescence detection, in the case of other low molecular weight extracellular components, by means of EMI-MS, and in the case of stable isotopic tracers and metal ions, by means of ICP-MS.
(§4) In the above-described set up, the following parameters were determined simultaneously or in an explicitly correlating manner. […] Accompanying this, are the simultaneous changes in the release of neurotransmitter (GABA), the influx of Mg into the cells, as detected using the stable isotopic tracer ^26Mg. […]

hippocampal cells [2] = experiment: Fura-2 fluorescence imaging of intracellular calcium after glutamate stimulation in flow cell; conditions: hippocampal neurons
Text: as §1, with “Sigma). […]” for “Sigma).”
The fluorescence signals in a larger number of cells are detected, in a time-resolved manner, in dependence on the stimulation conditions (temperature, active compound).
as §4

hippocampal cells [3] = experiment: Intracellular 26Mg stable isotopic tracer by ICP-MS; conditions: hippocampal neurons, 100 μm glutamate for 30 seconds, +22° C.; control 25 nM/mg of protein
Procedure: as §2, §3, §4

SMILES | Quantity of Neu-β (32 kDa spot) in 2-D-PAGE (Neuregulin-β) | GABA measured quantity (prestimulated) (hippocampal cells [1]) [pmol] | Neuregulin-β expression (prestimulated) (Neuregulin-β; hippocampal neurons, glutamate stimulated, control not expressed) | Calcium (intracellular) concentration (prestimulated) (hippocampal cells [2]; 100 μm glutamate for 30 seconds, +22° C., control 350 nM) [nM] | Calcium inflow (Fura-2) (hippocampal cells [2]; qualitative) | 26Mg (intracellular) concentration (prestimulated) (hippocampal cells [3])
C[C@]12N[C@H](Cc3ccccc31)c1ccccc12 [MK-801] | only weakly present, or cannot be found at all | – | – | – | – | –
N[C@@H](CCC(=O)O)C(=O)O [glutamate, L-glutamate] | substantially larger quantity | 74 | Strongly | 850 | induces an inflow of calcium ions | 45 nM/mg of nM/mg of protein
